Test results as given in patent publication US20220242874A1, “CAMPTOTHECIN DERIVATIVES” (SUN PHARMA ADVANCED RESEARCH COMPANY LIMITED, priority 2019, published 2022).
Structures can show the parent of a compound that is named as a salt. Where two headings read alike, the source gives them in different places.

Key:
MDA-MB-231 cells = test: In-vitro cancer cell growth inhibition assay (MTT); type: cell-based; conditions: Homo sapiens, MDA-MB-231, 96 h, read-out: IC50 (nM) MDA-MB-231
Protocol: (§1) The compounds of the present invention were evaluated for their ability to inhibit the growth of various cell line models of small cell lung cancer (SCLC), colon cancer, pancreatic cancer and triple negative breast cancer (TNBC) in-vitro. Details of the cell lines and their respective complete growth media are described in Table 3. The growth inhibition assay was carried out as described below. Briefly, cells in complete growth media were seeded in 96-well plates at appropriate cell densities (seeding density details described in Table 3) and incubated at 37° C., 5% CO2 (3-4 hours for NCI-H526, NCI-H69, NCI-H187 and overnight for the rest of the cells). Serial dilutions of test compound in DMSO were added to the cells while maintaining the final DMSO concentration of 0.4%-0.5% in the well. Plates were incubated for 96-144 h (the exact duration for each assay is described in Table 3) at 37° C., 5% CO2. Subsequently, MTT (final concentration 0.5 mg/mL in media) was incubated with the cells at 37° C., 5% CO2 for 4-5 hours. The formazan crystals were dissolved overnight at 37° C., 5% CO2 using 100 μL extractant (10% SDS in 0.01N HCl) and quantified using absorbance at 570 nm with reference wavelength 630 nm. Growth inhibition was represented as percent decrease in absorbance compared to vehicle treated cells.

MDA-MB-468 cells = test: In-vitro cancer cell growth inhibition assay (MTT); type: cell-based; conditions: Homo sapiens, MDA-MB-468, 96 h, read-out: IC50 (nM) MDA-MB-468
Protocol: as §1

MX-1 cells = test: In-vitro cancer cell growth inhibition assay (MTT); type: cell-based; conditions: Homo sapiens, MX1, 144 h, read-out: IC50 (nM) MX-1
Protocol: as §1

[1] = In-vitro stability in mice tumor lysate; conditions: for % Remaining in tumor lysate: spiked 2000 ng/mL, pH 5.5, 37° C.
Protocol: (§2) Aliquot of 100 μL were taken from stability samples in pre-labelled micro-centrifuge tubes. 5 μL of cetirizine working internal standard (5 μg/mL) was added to each tube and vortexed well. 1 mL acetonitrile was added to each tube and vortexed well and then centrifuge at 10000 RPM for 5 min at room temperature. The supernatant was collected in ria vials and evaporated to dryness under nitrogen stream. The samples were reconstituted in 1 mL of 0.1% formic acid in water: acetonitrile 30:70 v/v. The prepared samples were analyzed using LC-MS/MS method. Quantification was done against SN-38 standard, prepared at 2000 ng/mL concentration. SN-38 standard prepared by spiking 5 μL of SN-38 working standard to 95 μL of blank mice tumor homogenate to achieve 2000 ng/mL concentration and vortexed well and processed as described.
(§3) LC-MS/MS Method: Chromatographic separation was achieved on Inertsil C8-3 (50×4.6 mm, 5 μ) with a flow rate of 250 μL/min and an injection volume of 10 μL. The sample cooler was maintained at 10° C. The column oven temperature was set to 40° C. The mobile phase consisted of 0.1% formic acid in Milli Q water and acetonitrile in the ratio of 30:70 v/v, respectively. […] The overall chromatographic run time was 4.0 minutes.
(§4) Detection was performed by tandem mass spectrometry (TSQ Quantum, Discovery MAX, Thermo Electron Corporation) and peak areas were integrated using LCquan software version 2.9 QF1.
(§5) 0 hr standard area was considered as 100% for calculation.

[2] = Comparison of solubility in water; type: physicochemical
Source text: Comparison of Solubility of Compound I.4 in Water with SN-38

[3] = Camptosar Prescribing Information; cited from earlier work
[4] = mouse, 2000 ng/mL, pH 5.5
Protocol: as §2, §3, §4, §5

CCc1c2c(nc3ccc(O)cc13)-c1cc3c(c(=O)n1C2)COC(=O)[C@@]3(CC)OC(=O)OCCSSCCOC(=O)N(C)c1ccc(N2CCN(C)CC2)cc1 [Compound I.4, 2-(2-{N-Methyl-N-[4-(4-methylpiperazin-1-yl)phenyl]carbamoyloxy}ethyldisulfanyl)ethyl [(4S)-4,11-diethyl-3,4,12,14-tetrahydro-9-hydroxy-1H-pyrano[3′,4′:6,7]indolizino[1,2-b]quinoline-3,14-(4H,12H)dione-4-yl] carbonate dihydrochloride]
IC50 (MDA-MB-231 cells): 129 nM | IC50 (MDA-MB-468 cells): 8.2 nM | IC50 (MX-1 cells): 6.9 nM | % Remaining in tumor lysate ([1]; 0 hr): 100.0% | % Remaining in tumor lysate ([1]; 1 hr): 0.0% | % Remaining in tumor lysate ([1]; 2 hr): 0.0% | % Remaining in tumor lysate ([1]; 4 hr): 0.0% | % Remaining in tumor lysate ([1]; 6 hr): 0.0% | % Remaining in tumor lysate ([1]; 8 hr): 0.0% | time after incubation until cleaved to give active SN-38 ([1]; tumor lysate, 37° C.): ≤ 1 h | Solubility in water [2]: Solubility: 100 mg/11 ml in water.

CCc1c2c(nc3ccc(O)cc13)-c1cc3c(c(=O)n1C2)COC(=O)[C@]3(O)CC [SN-38]
protein bound in plasma [3]: About 96% | Solubility in water [2]: Practically insoluble in water | % Remaining in tumor lysate ([4]; 0 h): 100.0% | % Remaining in tumor lysate ([4]; 1 h): 94.9% | % Remaining in tumor lysate ([4]; 2 h): 90.7% | % Remaining in tumor lysate ([4]; 4 h): 100.1% | % Remaining in tumor lysate ([4]; 6 h): 88.9% | % Remaining in tumor lysate ([4]; 8 h): 91.4%
